Tests used:
Acetylcholinesterase = Acetylcholinesterase (Homo sapiens, UniProt P22303); experiment: In vitro inhibition of human erythrocyte acetylcholinesterase.
Cholinesterase = Cholinesterase (Homo sapiens, UniProt P06276); experiment: In vitro inhibition of human plasma butyrylcholinesterase.; type: cell-free
Cholinesterase, sequence (P06276 whole entry): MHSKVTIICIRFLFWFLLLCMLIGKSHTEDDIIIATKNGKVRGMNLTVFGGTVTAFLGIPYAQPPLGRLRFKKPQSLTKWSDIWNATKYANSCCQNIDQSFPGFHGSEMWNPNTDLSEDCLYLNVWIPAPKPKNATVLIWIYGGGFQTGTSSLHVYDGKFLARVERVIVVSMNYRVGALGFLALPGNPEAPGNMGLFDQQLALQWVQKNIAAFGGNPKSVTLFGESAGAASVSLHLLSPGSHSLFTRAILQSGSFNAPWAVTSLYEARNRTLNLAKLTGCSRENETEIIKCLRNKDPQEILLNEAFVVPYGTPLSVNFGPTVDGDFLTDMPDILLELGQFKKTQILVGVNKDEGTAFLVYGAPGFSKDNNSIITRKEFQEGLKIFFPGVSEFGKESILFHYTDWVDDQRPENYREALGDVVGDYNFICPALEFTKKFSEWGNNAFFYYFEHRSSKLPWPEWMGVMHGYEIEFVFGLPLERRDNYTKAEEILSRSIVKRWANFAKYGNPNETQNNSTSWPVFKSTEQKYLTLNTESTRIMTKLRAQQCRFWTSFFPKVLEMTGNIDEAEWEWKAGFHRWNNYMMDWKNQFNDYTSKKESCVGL

Acetylcholinesterase, sequence (P22303 whole entry): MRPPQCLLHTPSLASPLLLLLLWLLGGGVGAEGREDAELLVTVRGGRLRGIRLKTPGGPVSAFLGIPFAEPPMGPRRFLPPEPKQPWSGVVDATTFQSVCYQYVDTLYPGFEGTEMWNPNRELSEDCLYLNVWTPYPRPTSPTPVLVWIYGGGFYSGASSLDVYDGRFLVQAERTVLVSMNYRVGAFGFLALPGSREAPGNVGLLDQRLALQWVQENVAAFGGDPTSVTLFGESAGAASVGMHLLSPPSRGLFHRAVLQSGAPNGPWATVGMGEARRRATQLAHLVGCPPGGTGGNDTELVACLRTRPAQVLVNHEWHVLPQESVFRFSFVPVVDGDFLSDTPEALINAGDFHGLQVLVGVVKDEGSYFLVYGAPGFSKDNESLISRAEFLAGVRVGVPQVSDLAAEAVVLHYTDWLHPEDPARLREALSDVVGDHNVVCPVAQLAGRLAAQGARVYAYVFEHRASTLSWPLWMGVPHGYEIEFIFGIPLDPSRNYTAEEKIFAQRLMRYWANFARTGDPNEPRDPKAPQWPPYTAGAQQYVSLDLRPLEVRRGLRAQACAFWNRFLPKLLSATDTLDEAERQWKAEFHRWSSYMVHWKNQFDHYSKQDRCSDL

SMILES	IC50 (Acetylcholinesterase) [nM]	IC50 (Cholinesterase) [nM]
CC(C)c1ccccc1NC(=O)Oc1ccc2c(c1)[C@]1(C)CCN(C)[C@@H]1N2C	15	650
Cc1ccc(NC(=O)Oc2ccc3c(c2)[C@]2(C)CCN(C)[C@@H]2N3C)cc1C	31	66
Cc1cc(C)cc(NC(=O)Oc2ccc3c(c2)[C@]2(C)CCN(C)[C@@H]2N3C)c1	78	798
Cc1cccc(NC(=O)Oc2ccc3c(c2)[C@]2(C)CCN(C)[C@@H]2N3C)c1	28	165
CN(C(=O)Oc1ccc2c(c1)[C@]1(C)CCN(C)[C@@H]1N2C)c1ccccc1	690	> 10000
CN(C)Cc1cc2c(cc1OC(=O)Nc1ccccc1)[C@]1(C)CCN(C)[C@@H]1N2C	2500	3890
Cc1cc2c(cc1OC(=O)Nc1ccccc1)[C@]1(C)CCN(C)[C@@H]1N2C	260	5020
CNC(=O)Oc1cc2c(cc1C)N(C)[C@H]1N(C)CC[C@@]21C	> 10000	8530
CCc1cccc(CC)c1NC(=O)Oc1ccc2c(c1)[C@]1(C)CCN(C)[C@@H]1N2C	–	1100
Cc1ccc(NC(=O)Oc2ccc3c(c2)[C@]2(C)CCN(C)[C@@H]2N3C)c(C)c1	14	–
Cc1cccc(NC(=O)Oc2ccc3c(c2)[C@]2(C)CCN(C)[C@@H]2N3C)c1C	23	170
Cc1ccc(C)c(NC(=O)Oc2ccc3c(c2)[C@]2(C)CCN(C)[C@@H]2N3C)c1	26	490
Cc1cccc(C)c1NC(=O)Oc1ccc2c(c1)[C@]1(C)CCN(C)[C@@H]1N2C	785	290
CCc1ccccc1NC(=O)Oc1ccc2c(c1)[C@]1(C)CCN(C)[C@@H]1N2C [ETHYLPHENSERINE]	10	–
CN1CC[C@@]2(C)c3cc(OC(=O)Nc4ccccc4)ccc3N(C)[C@@H]12 [PHENSERINE]	–	1560

Source: ChEMBL document CHEMBL1134282 (J Med Chem, 2001)
